According to paper PMC9516332 (Frontiers in Oncology, 2022):
Read-outs that look alike come from different tables or passages of the source.

Legend:
Test in all cases: Kinase panel profiling at 1 µmol/L (MSA or IMAP), percentage inhibition
Type in all cases: biochemical
[1] = target: panel of 255 wild-type kinases (Homo sapiens, UniProt O94804); conditions: read-out: %-inhibition at 1 µmol/L, LOK
[2] = target: panel of 255 wild-type kinases (Homo sapiens, UniProt P78368); conditions: read-out: %-inhibition at 1 µmol/L, CK1γ2
[3] = target: T1, panel of 255 wild-type kinases (Homo sapiens, UniProt Q02156); conditions: read-out: %-inhibition at 1 µmol/L, PKCε
T1 sequence (Q02156 1-737): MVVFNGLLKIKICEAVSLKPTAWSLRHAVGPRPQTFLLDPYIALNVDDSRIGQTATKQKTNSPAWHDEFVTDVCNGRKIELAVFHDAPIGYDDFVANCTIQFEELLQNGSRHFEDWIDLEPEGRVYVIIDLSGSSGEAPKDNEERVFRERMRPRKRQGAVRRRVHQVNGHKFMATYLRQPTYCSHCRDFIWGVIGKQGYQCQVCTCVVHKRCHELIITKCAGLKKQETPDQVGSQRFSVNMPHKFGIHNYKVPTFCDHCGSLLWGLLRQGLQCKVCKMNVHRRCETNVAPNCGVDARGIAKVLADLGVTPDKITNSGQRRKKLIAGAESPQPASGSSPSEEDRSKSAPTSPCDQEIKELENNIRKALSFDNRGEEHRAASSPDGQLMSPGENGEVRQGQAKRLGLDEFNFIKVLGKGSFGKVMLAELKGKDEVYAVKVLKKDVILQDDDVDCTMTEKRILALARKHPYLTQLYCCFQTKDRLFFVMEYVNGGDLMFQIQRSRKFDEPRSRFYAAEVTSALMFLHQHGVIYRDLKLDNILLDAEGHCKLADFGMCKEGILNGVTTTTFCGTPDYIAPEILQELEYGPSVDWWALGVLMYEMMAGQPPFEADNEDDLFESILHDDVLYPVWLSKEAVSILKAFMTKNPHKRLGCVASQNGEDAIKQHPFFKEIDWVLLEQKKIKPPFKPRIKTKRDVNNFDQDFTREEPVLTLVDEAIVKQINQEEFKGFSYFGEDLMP

[4] = target: panel of 255 wild-type kinases (Homo sapiens, UniProt Q13164); conditions: read-out: %-inhibition at 1 µmol/L, Erk5
[5] = target: T2, panel of 255 wild-type kinases (Homo sapiens, UniProt Q13237); conditions: read-out: %-inhibition CGK2
T2 sequence (Q13237 1-762): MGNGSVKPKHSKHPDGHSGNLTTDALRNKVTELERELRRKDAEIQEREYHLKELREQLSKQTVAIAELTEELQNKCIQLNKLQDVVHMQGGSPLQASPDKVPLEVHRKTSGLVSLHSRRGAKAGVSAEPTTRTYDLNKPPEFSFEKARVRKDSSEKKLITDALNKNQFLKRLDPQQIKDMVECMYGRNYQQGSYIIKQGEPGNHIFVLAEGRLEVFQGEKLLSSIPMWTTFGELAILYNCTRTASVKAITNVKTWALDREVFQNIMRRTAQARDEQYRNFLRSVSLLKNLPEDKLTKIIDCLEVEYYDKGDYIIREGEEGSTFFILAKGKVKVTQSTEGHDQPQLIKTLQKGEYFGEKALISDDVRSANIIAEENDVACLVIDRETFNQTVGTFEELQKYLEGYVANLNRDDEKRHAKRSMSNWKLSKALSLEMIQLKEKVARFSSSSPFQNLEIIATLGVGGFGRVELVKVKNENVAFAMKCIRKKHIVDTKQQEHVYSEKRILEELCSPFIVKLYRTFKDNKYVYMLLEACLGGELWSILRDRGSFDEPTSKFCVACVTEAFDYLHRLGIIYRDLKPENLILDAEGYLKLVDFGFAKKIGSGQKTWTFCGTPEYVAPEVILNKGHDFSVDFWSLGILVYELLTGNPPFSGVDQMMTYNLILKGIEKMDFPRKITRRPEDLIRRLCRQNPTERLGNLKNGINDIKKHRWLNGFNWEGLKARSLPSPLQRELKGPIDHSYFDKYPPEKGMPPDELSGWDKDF

[6] = target: panel of 255 wild-type kinases (Homo sapiens, UniProt Q14012); conditions: read-out: %-inhibition CaMK1α
[7] = target: panel of 255 wild-type kinases (Homo sapiens, UniProt Q9NYA1); conditions: read-out: %-inhibition at 1 µmol/L, SPHK1
[8] = target: panel of 255 wild-type kinases (Homo sapiens, UniProt Q9Y243); conditions: read-out: %-inhibition AKT3
[9] = kinase LOK, 1 µmol/L single concentration
[10] = kinase CK1γ2, 1 µmol/L single concentration
[11] = kinase PKCε, 1 µmol/L single concentration
[12] = kinase Erk5, 1 µmol/L single concentration
[13] = CGK2 kinase assay, 1 µmol/L single concentration
[14] = CaMK1α kinase assay, 1 µmol/L single concentration
[15] = kinase SPHK1, 1 µmol/L single concentration
[16] = AKT3 kinase assay, 1 µmol/L single concentration

Row | SMILES | inhibition at 1 µM [1, 9] [%] | inhibition at 1 µM [2, 10] [%] | inhibition at 1 µM [3, 11] [%] | inhibition at 1 µM [4, 12] [%] | inhibition at 1 µM [5, 13] [%] | inhibition at 1 µM [6, 14] [%] | inhibition at 1 µM [7, 15] [%] | inhibition at 1 µM [8, 16] [%] | inhibition at 1 µM [1] [%] | inhibition at 1 µM [2] [%] | inhibition at 1 µM [3] [%] | inhibition at 1 µM [4] [%] | inhibition at 1 µM [5] [%] | inhibition at 1 µM [6] [%] | inhibition at 1 µM [7] [%] | inhibition at 1 µM [8] [%]
1 | Cc1nc(NC(=O)N2CCC[C@H]2C(N)=O)sc1-c1ccnc(C(C)(C)C(F)(F)F)c1 [alpelisib] | -7 | -1.58 | 15 | 0.367 | -5 | -10 | -5.44 | -0.151 | – | – | – | – | – | – | – | –
2 | Cn1cc(-c2cc3c(N4CCN(c5ncc([C@@](C)(N)c6ccc(F)cc6)cn5)CC4)ncnn3c2)cn1 [avapritinib] | 54 | 7 | -2.54 | 1.78 | 4.65 | -9 | -1.72 | -5 | – | – | – | – | – | – | – | –
3 | Cn1cnc2c(F)c(Nc3ccc(Br)cc3F)c(C(=O)NOCCO)cc21 [binimetinib] | 3.42 | -0.416 | 11 | -0.05 | 2.58 | -5 | -26 | -5.69 | – | – | – | – | – | – | – | –
4 | CNC(=O)c1ccc(-c2cnc3ncc(Cc4ccc5ncccc5c4)n3n2)cc1F [capmatinib] | – | – | – | – | – | – | – | – | 0.859 | -10 | -19 | -3 | -1.13 | -9 | -5.27 | -5
5 | COc1cc2ncnc(Nc3ccc(F)c(Cl)c3)c2cc1NC(=O)/C=C/CN1CCCCC1 [dacomitinib] | 86 | -1.63 | 8 | 0.172 | 10 | -7 | -15 | -5 | – | – | – | – | – | – | – | –
6 | C[C@H](Nc1ncnc2nc[nH]c12)c1cc2cccc(Cl)c2c(=O)n1-c1ccccc1 [duvelisib] | 0.582 | 2.74 | 13 | -0.634 | -0.775 | -5.33 | -3.25 | 0.279 | – | – | – | – | – | – | – | –
7 | COC(=O)N[C@@H](C)CNc1nccc(-c2cn(C(C)C)nc2-c2cc(Cl)cc(NS(C)(=O)=O)c2F)n1 [encorafenib] | 1.24 | 31 | -7 | 9 | 0.267 | 2.72 | -5.65 | -0.872 | – | – | – | – | – | – | – | –
8 | CN1CCN(c2ccc(C(=O)Nc3n[nH]c4ccc(Cc5cc(F)cc(F)c5)cc34)c(NC3CCOCC3)c2)CC1 [entrectinib] | 28 | 0.857 | 27 | 13 | 4.42 | -5.68 | -4 | -1.28 | – | – | – | – | – | – | – | –
9 | CCc1nc(C(N)=O)c(Nc2ccc(N3CCC(N4CCN(C)CC4)CC3)c(OC)c2)nc1NC1CCOCC1 [gilteritinib] | 100 | 6.55 | 27 | 38 | 82 | 41 | -6 | -4.56 | – | – | – | – | – | – | – | –
10 | CCN1CCN(c2ccc(Nc3cc(N(C)C(=O)Nc4c(Cl)c(OC)cc(OC)c4Cl)ncn3)cc2)CC1 [infigratinib] | 34 | -12 | 4.68 | 30 | -2 | -22 | -14 | -7 | – | – | – | – | – | – | – | –
11 | O=C(Nc1cnn2ccc(N3CCC[C@@H]3c3cc(F)ccc3F)nc12)N1CC[C@H](O)C1 [larotrectinib] | 5.3 | -7 | 8 | 1.26 | -0.443 | -1.63 | -16 | -5.46 | – | – | – | – | – | – | – | –
12 | C[C@H]1Oc2cc(cnc2N)-c2c(nn(C)c2C#N)CN(C)C(=O)c2ccc(F)cc21 [lorlatinib] | 87 | 2.14 | 10 | 38 | -3 | 1.49 | -7 | -0.768 | – | – | – | – | – | – | – | –
13 | CCN1C(=O)N(c2c(F)c(OC)cc(OC)c2F)Cc2cnc3[nH]c(CN4CCOCC4)cc3c21 [pemigatinib] | 4.7 | -9 | 5 | 97 | 1.58 | 12 | -13 | -2.7 | – | – | – | – | – | – | – | –
14 | FC(F)(F)c1ccc(CNc2ccc(Cc3c[nH]c4ncc(Cl)cc34)cn2)cn1 [pexidartinib] | 25 | -0.864 | 1.26 | 10 | 17 | -13 | -5 | -6 | – | – | – | – | – | – | – | –
15 | CO[C@]1(C(=O)N[C@@H](C)c2ccc(-n3cc(F)cn3)nc2)CC[C@H](c2nc(C)cc(Nc3cc(C)[nH]n3)n2)CC1 [pralsetinib] | 13 | -13 | 0.425 | 0.775 | 25 | -4.72 | 0.199 | -2.71 | – | – | – | – | – | – | – | –
16 | CCn1c(=O)c(-c2cc(NC(=O)Nc3ccccc3)c(F)cc2Br)cc2cnc(NC)cc21 [ripretinib] | 53 | -2.31 | 6 | 0.452 | 0.547 | -8 | -19 | -6.42 | – | – | – | – | – | – | – | –
17 | COc1ccc(CN2C3CC2CN(c2ccc(-c4cc(OCC(C)(C)O)cn5ncc(C#N)c45)cn2)C3)cn1 [selpercatinib] | 40 | -2.46 | 7 | 4 | 16 | -5.55 | -13 | -0.71 | – | – | – | – | – | – | – | –
18 | Cn1cnc2c(F)c(Nc3ccc(Br)cc3Cl)c(C(=O)NOCCO)cc21 [selumetinib] | 5 | -1.66 | 0.617 | 2.36 | -1.64 | -4.36 | -8 | -6.42 | – | – | – | – | – | – | – | –
